The source of these data is ChEMBL document CHEMBL4041539, “1,2,3-Triazole-nimesulide hybrid: Their design, synthesis and evaluation as potential anticancer agents” (Bioorg Med Chem Lett, 2017).

The structures appear in SMILES notation.

One data set relates to DU-145. Description: Growth inhibition of human DU145 cells after 48 hrs by MTT assay. In kind it is functional, cell-based. As to conditions: DU-145, 48 h. On the technique in general: Tetrazolium dyes change colour on reduction, which living cells bring about.
The next data set has as its system A549. Put plainly: Growth inhibition of human A549 cells after 48 hrs by MTT assay. In kind it is functional, cell-based. As to conditions: A549, 48 h.
The next data set relates to HEK293. Put plainly: Cytotoxicity against HEK293 cells up to 10 uM after 48 hrs by MTT assay. In kind it is cell-based. As to conditions: human, hek293, 48 h.
The test system of another data set is HepG2. Description: Growth inhibition of human HepG2 cells after 48 hrs by MTT assay. It is filed as functional, cell-based. As to conditions: HepG2, 48 h.
The test system of a further data set is HeLa. Put plainly: Growth inhibition of human HeLa cells after 48 hrs by MTT assay. In kind it is functional, cell-based.
In data set [1] the target is 3',5'-cyclic-AMP phosphodiesterase 4B (Homo sapiens) (UniProt Q07343). Description: Inhibition of recombinant His-tagged PDE4B1 (unknown origin) expressed in baculovirus infected sf9 cells at 10 uM using cAMP as substrate preincubated for 15 mins followed by cAMP addition measured after 1 hr by PDE light HTS assay relative to control.
3',5'-cyclic-AMP phosphodiesterase 4B (Homo sapiens), sequence (Q07343 whole entry): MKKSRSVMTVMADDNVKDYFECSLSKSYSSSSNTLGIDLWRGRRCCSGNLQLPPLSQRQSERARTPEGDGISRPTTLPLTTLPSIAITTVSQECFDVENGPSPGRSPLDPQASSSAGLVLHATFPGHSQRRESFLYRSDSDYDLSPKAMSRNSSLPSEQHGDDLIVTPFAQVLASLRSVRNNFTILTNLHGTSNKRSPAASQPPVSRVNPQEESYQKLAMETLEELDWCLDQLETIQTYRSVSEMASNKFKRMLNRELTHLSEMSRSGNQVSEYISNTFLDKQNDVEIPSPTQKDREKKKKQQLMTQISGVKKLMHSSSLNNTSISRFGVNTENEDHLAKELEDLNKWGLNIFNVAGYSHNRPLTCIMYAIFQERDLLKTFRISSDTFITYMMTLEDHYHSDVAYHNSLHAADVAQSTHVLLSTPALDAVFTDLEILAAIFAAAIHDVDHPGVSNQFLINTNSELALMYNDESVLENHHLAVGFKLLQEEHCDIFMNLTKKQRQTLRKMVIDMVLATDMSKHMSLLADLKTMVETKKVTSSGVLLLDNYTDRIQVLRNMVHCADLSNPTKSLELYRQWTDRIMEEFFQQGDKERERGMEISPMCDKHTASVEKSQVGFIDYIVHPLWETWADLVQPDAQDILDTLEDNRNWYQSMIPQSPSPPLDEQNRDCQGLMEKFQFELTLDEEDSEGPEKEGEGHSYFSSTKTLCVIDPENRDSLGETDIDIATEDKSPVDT
Data set [2] has as its target Prostaglandin G/H synthase 2 (Homo sapiens) (UniProt P35354). Description: Inhibition of human COX2 expressed in baculovirus infected sf9 microsomes at 10 uM using arachidonic acid as substrate preincubated for 15 mins followed by substrate addition by TMPD oxidation based assay relative to control.

Prostaglandin G/H synthase 2 (Homo sapiens), sequence (P35354 whole entry, looked up): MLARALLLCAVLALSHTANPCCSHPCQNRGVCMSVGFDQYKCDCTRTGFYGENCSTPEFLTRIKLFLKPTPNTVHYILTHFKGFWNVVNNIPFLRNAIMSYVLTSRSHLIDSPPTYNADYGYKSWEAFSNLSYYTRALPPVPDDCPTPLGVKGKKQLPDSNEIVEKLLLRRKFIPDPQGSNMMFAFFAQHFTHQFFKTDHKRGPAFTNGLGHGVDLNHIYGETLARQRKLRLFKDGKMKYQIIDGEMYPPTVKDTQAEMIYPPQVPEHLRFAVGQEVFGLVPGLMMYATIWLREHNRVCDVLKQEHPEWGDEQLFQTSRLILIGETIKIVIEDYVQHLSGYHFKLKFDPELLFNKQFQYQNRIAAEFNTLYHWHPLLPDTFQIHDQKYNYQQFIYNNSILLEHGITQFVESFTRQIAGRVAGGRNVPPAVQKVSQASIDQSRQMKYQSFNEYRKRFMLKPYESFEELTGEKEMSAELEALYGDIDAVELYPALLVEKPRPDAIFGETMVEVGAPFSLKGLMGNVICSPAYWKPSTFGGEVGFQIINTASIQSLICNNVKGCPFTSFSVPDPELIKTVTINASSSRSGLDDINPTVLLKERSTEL

A word on the IC50: it is the concentration needed to halve the response being measured. Lower therefore signals greater potency in that assay. With `Cc1ccc(OCc2cn(-c3ccc(NS(C)(=O)=O)c(Oc4ccccc4)c3)nn2)cc1`, the IC50 was determined as 8.2 µM in the data set with DU-145, 8 µM in the data set with A549, 13 µM in the data set on HepG2 and 15.8 µM in the data set with HeLa. Moreover, in the data set with HEK293, the Activity entry is reported as “Non-Toxic”.

As for `Cc1ccc(-c2cn(-c3ccc(NS(C)(=O)=O)c(Oc4ccccc4)c3)nn2)cc1`, the IC50 in the data set on DU-145 is 11.2 µM; in the data set on HepG2 it was 18.3 µM. In addition, the Activity result with HEK293 was “Non-Toxic”.

For `CS(=O)(=O)Nc1ccc(-n2cc(-c3ccccc3)nn2)cc1Oc1ccccc1`, the IC50 in the data set with DU-145 turned out to be 14.2 µM; with A549 it was 29.9 µM; in the data set with HepG2, 13.6 µM; in the data set on HeLa, 21.9 µM. Moreover, the Activity result in the data set with HEK293 is on record as “Non-Toxic”.

In general, inhibition refers to how much of the control response was suppressed. As to `Cc1cc(OCc2cn(-c3ccc(NS(C)(=O)=O)c(Oc4ccccc4)c3)nn2)ccc1Cl`, the IC50 with DU-145 was 5.9 µM; with A549 it was 6.7 µM; in the data set with HepG2, 9.8 µM; with HeLa, 7.9 µM. Further, the Activity result in the data set with HEK293 is “Non-Toxic”. Besides, the inhibition in data set [1] stood at 67.5%.

Turning to `CS(=O)(=O)Nc1ccc(-n2cc(COc3ccc(Cl)cc3)nn2)cc1Oc1ccccc1`, the IC50 in the data set on DU-145 was 6.4 µM; with A549 it was 7.1 µM; in the data set on HepG2, 7.5 µM; with HeLa, 7.8 µM. The Activity result in the data set on HEK293 is “Non-Toxic”. Also, the inhibition in data set [2] stood at 23%; in data set [1] it was 62.8%.

As for `CS(=O)(=O)Nc1ccc(-n2cc(COc3ccccc3Cl)nn2)cc1Oc1ccccc1`, the concentration for half-maximal inhibition (IC50) in the data set on DU-145 stood at 21.1 µM; in the data set on A549, 53.8 µM; in the data set with HepG2 it was 25.3 µM; in the data set on HeLa it was 38.6 µM. Besides, the Activity result in the data set with HEK293 is on record as “Non-Toxic”.

As for `CS(=O)(=O)Nc1ccc(-n2cc(COc3ccc([N+](=O)[O-])cc3)nn2)cc1Oc1ccccc1`, the figures for the IC50 in the data set on DU-145 and in the data set with A549 were 7.2 µM and 6.6 µM, respectively. Besides, the Activity result in the data set on HEK293 is listed as “Non-Toxic”. Besides, the inhibition in data set [1] was determined as 70.2%.

In the case of `CS(=O)(=O)Nc1ccc([N+](=O)[O-])cc1Oc1ccccc1` [NIMESULIDE], the IC50 with A549 was 67.8 µM; in the data set with HepG2, 35.2 µM. The inhibition in data set [1] came to 52%.

For the compound `CS(=O)(=O)Nc1ccc(-n2cc(COc3ccc4ccccc4c3)nn2)cc1Oc1ccccc1`, the IC50 is 9.1 µM with DU-145, 8.3 µM in the data set with A549, 19.5 µM in the data set on HepG2 and 12.8 µM in the data set on HeLa. Moreover, in the data set on HEK293, the Activity result was “Non-Toxic”.
